According to publication PMC5826112, “Intrapulmonary Pharmacokinetics of Relebactam, a Novel β-Lactamase Inhibitor, Dosed in Combination with Imipenem-Cilastatin in Healthy Subjects” (Antimicrobial Agents and Chemotherapy, 2018):
Like-named read-outs stand apart in the source and are kept apart here.

Tests used:
[1] = Intrapulmonary (ELF, AC) and plasma pharmacokinetics after multiple-dose IV relebactam with imipenem-cilastatin, bronchoscopy/BAL, noncompartmental analysis; type: in vivo, human (healthy subjects); settings: for t1/2 (terminal half-life) / half-life / AUC(0-inf) / Cmax / Tmax / AUC(0-t): mean profile; for half-life: read-out: t1/2 (terminal half-life) (converted); for Kp at 1 h: 1.0 h after last dose; for Kp at 3 h: 3.0 h after last dose; for AUC(0-inf): noncompartmental analysis; for AUC(0-t): read-out: AUC0–3
Procedure: Dosing and administration of imipenem-cilastatin were carried out in a manner consistent with the recommended labeled posology. BAL fluid specimens were obtained during bronchoscopy for the determination of the relebactam and imipenem concentrations in the ELF and AC. Four aliquots of normal saline (50 ml each) were sequentially instilled and aspirated after each instillation. The first aspirate was discarded, and the remaining aspirates were pooled and used to obtain urea and drug level measurements. Aliquots were obtained for cell count/differential, and the remainder of the pooled aspirates was centrifuged. The liquid aspirate and cell pellet were separated and stored at −70°C. The supernatant was sent for urea and drug level measurements. Blood samples were collected prior to the first and fifth doses of study drug for the determination of relebactam and imipenem plasma concentrations. Blood samples were also collected during the bronchoscopy/BAL procedure for the determination of relebactam, imipenem, and urea concentrations. Relebactam and imipenem levels in plasma, pulmonary ELF, and AC were measured simultaneously via acetonitrile protein precipitation and hydrophilic interaction liquid chromatography (HILIC) with detection via liquid chromatography-tandem mass spectrometry (LC-MS/MS). The system consisted of a Waters Acquity ultraperformance liquid chromatograph (Waters Corp., Milford, MA) and an API 4000 or 5000 triple-quadrupole tandem mass spectrometer (Sciex, Framingham, MA) equipped with a turbo-ion spray interface and operated in the positive ionization mode. The multiple reaction monitoring (MRM) transitions monitored were m/z 349 → 269 for relebactam, m/z 300 → 98 for imipenem, and m/z 354 → 274 and m/z 307 → 98 for their respective internal standards. […] The ELF volumes recovered by BAL were determined by using urea as an endogenous marker to provide a dilution ratio by measurement of urea concentrations in the BAL fluid and serum ([33]). […] The mean value for each time point was used to conduct the noncompartmental analysis using Phoenix (version 6.3) software (Pharsight Corporation, Mountain View, CA) and to calculate the values of the PK parameters on the basis of the mean profile in each matrix.

[2] = design: method as in PMID 27503659, PMID 28575389; settings: coadministration with imipenem-cilastatin, phase 2 clinical studies; cited from earlier work
[3] = design: method as in PMID 25403667; settings: thigh infection model; cited from earlier work
[4] = both sexes, human, AC/plasma, intravenous, same regimen, n=4, read-out: AC/plasma concn GMR (90% CI)
[5] = both sexes, human, ELF/plasma, intravenous, same regimen, n=4, read-out: ELF/plasma concn GMR (90% CI)
[6] = both sexes, human, intravenous, AC, same regimen
[7] = both sexes, human, intravenous, ELF, same regimen
[8] = both sexes, human, intravenous, plasma, same regimen

In the case of O=C(NC1CCNCC1)[C@@H]1CC[C@@H]2CN1C(=O)N2OS(=O)(=O)O [relebactam], the “t1/2 (terminal half-life)” value ([1]; AC, same regimen) is reported as 2.25 h, the “t1/2 (terminal half-life)” value ([1]; ELF, same regimen) is reported as 1.29 h and the “GMR for the relebactam concentration versus the imipenem concentration in ELF” value ([1]; at the Tmax of imipenem (0.5 h), 90% CI 45%, 49%) is reported as 47%. It also gave a half-life ([1]; both sexes, human, AC, intravenous, AC, same regimen) of 2.3 h, a Kp ([1]; both sexes, human, AC/plasma, intravenous, mean profiles, after adjustment for protein binding, read-out: relative exposure (AUC0–∞) in AC versus plasma) of 0.36 and a Kp ([1]; both sexes, human, AC/plasma, intravenous, same regimen, 0.5 to 3 h after last dose, read-out: GMRs for AC/plasma concentrations, range across time points) of 0.14 to 0.51. For the same compound, the Kp at 0.5 h ([1]; both sexes, human, AC/plasma, intravenous, same regimen, 0.5 h after last dose, n=4, read-out: AC/plasma concn GMR (90% CI)) was 0.14, the Kp at 1 h [1, 4] was 0.25 and the Kp at 1.5 h ([1]; both sexes, human, AC/plasma, intravenous, same regimen, 1.5 h after last dose, n=4, read-out: AC/plasma concn GMR (90% CI)) was 0.38. It also gave a Kp at 3 h [1, 4] of 0.51, a half-life ([1]; both sexes, human, ELF, intravenous, ELF, same regimen) of 1.3 h and a concentration at 0.5 h ([1]; both sexes, human, ELF, intravenous, same regimen, 0.5 h after last dose, n=4, read-out: concn in ELF, GM) of 14.9 µM. For the same compound, the concentration at 1 h ([1]; both sexes, human, ELF, intravenous, same regimen, 1 h after last dose, n=4, read-out: concn in ELF, GM) was 10.9 µM, the concentration at 1.5 h ([1]; both sexes, human, ELF, intravenous, same regimen, 1.5 h after last dose, n=4, read-out: concn in ELF, GM) was 9.49 µM and the concentration at 3 h ([1]; both sexes, human, ELF, intravenous, same regimen, 3 h after last dose, n=4, read-out: concn in ELF, GM) was 4.27 µM. It also gave a Kp ([1]; both sexes, human, ELF/plasma, intravenous, calculated as 100 · ELF AUC0–∞/plasma AUC0–∞/0.8, adjusted for protein binding (80% unbound in plasma, 100% free in ELF), read-out: Adjusted ELF/plasma AUC0–∞ ratio) of 0.54, a Kp ([1]; both sexes, human, ELF/plasma, intravenous, calculated as 100 · ELF AUC0–∞/plasma AUC0–∞, mean profiles, read-out: ELF/plasma AUC0–∞ ratio) of 0.43 and a Kp ([1]; both sexes, human, ELF/plasma, intravenous, same regimen, 0.5 to 3 h after last dose, read-out: GMRs for ELF/plasma concentrations, range across time points) of 0.32 to 0.51. It also gave a Kp at 1 h [1, 5] of 0.35, a Kp at 1.5 h ([1]; both sexes, human, ELF/plasma, intravenous, same regimen, 1.5 h after last dose, n=4, read-out: ELF/plasma concn GMR (90% CI)) of 0.51 and a Kp at 3 h [1, 5] of 0.46. For the same compound, the Kp at 0.5 h ([1]; both sexes, human, ELF/plasma, iv, healthy subjects, relebactam 250 mg with imipenem-cilastatin 500 mg IV every 6 h, 5 doses, 0.5 h after last dose, n=4, read-out: ELF/plasma concn GMR (90% CI)) was 0.32, the AUC(0-inf) [1, 6] was 23.6 µM·h and the Cmax [1, 6] was 7.81 µM. For the same compound, the Tmax [1, 6] was 1 h, the AUC(0-t) [1, 6] was 12.8 µM·h and the AUC(0-inf) [1, 7] was 34.9 µM·h. It also gave a Cmax [1, 7] of 15.3 µM, a Tmax [1, 7] of 0.5 h and an AUC(0-t) [1, 7] of 26.7 µM·h. The AUC(0-inf) [1, 8] was 81.2 µM·h, the Cmax [1, 8] was 47.9 µM and the Tmax [1, 8] was 0.5 h. For the same compound, the AUC(0-t) [1, 8] was 64.7 µM·h, the half-life ([1]; both sexes, human, plasma, intravenous, plasma, same regimen) was 1.2 h and the “Adjusted ELF/plasma AUC0–∞ ratio” value ([1]; calculated as 100 · ELF AUC0–∞/plasma AUC0–∞/0.8, adjusted for protein binding (80% unbound in plasma, 100% free in ELF)) was 53.7%. For the same compound, the “t1/2 (terminal half-life)” value ([1]; plasma, same regimen) was 1.24 h, the “Relebactam/imipenem concn ratio in ELF, GMR” value ([1]; same regimen, 0.5 h after last dose) was 0.47 and the “Relebactam/imipenem concn ratio in ELF, GMR” value ([1]; same regimen, 1 h after last dose) was 0.54. The “Relebactam/imipenem concn ratio in ELF, GMR” value ([1]; same regimen, 1.5 h after last dose) was 0.58, the “Relebactam/imipenem concn ratio in ELF, GMR” value ([1]; same regimen, 3 h after last dose) was 0.71 and the tolerability [2] was “generally well tolerated”. For the same compound, the “required exposure (AUC0–24) for efficacy” value [3] was roughly 100 µM·h.
